The test system of test [1] is Kuramochi cells RB-WT. In words: IncuCyte Kuramochi cell proliferation assay, RB-WT. Conditions: 72 hours, cell count. It counts as cell-based. The method, then:
(§1) IncuCyte® assay was used to measure the effect of disclosed compounds on cell proliferation. Fluorescent microscopy images of cells were taken immediately after compound treatment and 72 hours later. Image analysis software was used to obtain cell counts as a function of compound concentration. Kuramochi cells labeled with mApple-H2B were seeded on 384-well assay-ready plates. Plates were placed in an IncuCyte® (Sartorius) and scanned at 0 and 72 hours. IncuCyte® software was used to count the number of fluorescent nuclei in each well. The fold change in cell count from 0 to 72 hours in wells treated with increasing compounds concentrations (10 pts, 1/2 log dilution, 20 µM top concentration) was normalized to DMSO control wells. The normalized cell counts were fit with dose response curves and a GI50 was calculated.

Test [2] has as its target CDK2/Cyclin E1 (Homo sapiens, UniProt P24941). Kind of test: ADP-Glo Luminescent Kinase Assay (CDK2/E1-37C). In kind it is biochemical. The conditions noted are these: 0.18 nM CDK2/Cyclin E1, 100 μM ATP, Histone H1, 37° C.; read-out: ADPGLO (CDK2/E1-37C): IC50. The method, then: Inhibition of CDK2/Cyclin E1 activity by the presence of small molecules was evaluated using ADP-Glo Luminescent Kinase Assay (Promega). Activated CDK2/Cyclin E1 was incubated with its substrate Histone H1 (SignalChem H10-54N) in the kinase reaction buffer (100 μM ATP, 50 mM HEPES pH 7.5, 10 mM MgCl2, 1 mM EDTA, 2 mM DTT, 0.01% Brij35, 0.5 mg/mL BSA). Luminescence was recorded with an Envision plate reader (PerkinElmer).
Dose titrations of inhibitors in 100% DMSO were combined with 0.36 nM CDK2/Cyclin E1 in reaction buffer. The mixtures were incubated for 60 minutes at 37° C. before the addition of ATP and Histone H1 substrate to initiate the kinase reaction. The final conditions were 0.18 nM CDK2/Cyclin E1, 100 μM ATP, and […] Histone H1. The reactions were incubated at 37° C. for 90 minutes before being stopped with the addition of ADP-Glo reagent. This mixture was incubated at room temperature for 60 minutes before Kinase Detection Solution is added to generate luminescence. The stopped reactions were analyzed on an Envision plate reader. The conversion ratios were normalized to yield % activity, plotted against compound concentration, and fit to a four-parameter equation to determine the IC50 for each compound.

Test [3] relates to Kuramochi cells RB-KO. In words: IncuCyte Kuramochi cell proliferation assay, RB-KO. In kind it is cell-based. Conditions: 72 hours, cell count, batch mean. The method, then:
as §1

As to `CC(C)(C(=O)N1CC2(CN(C(=O)c3cnn(Cc4ccc(F)cc4)c3)C[C@H]2COCc2cccc(C3CCC(C(F)(F)F)CC3)c2C(=O)O)C1)C(F)(F)F` (stereo partly drawn) [Compound I-94, (S)-2-(((6-(1-(4-fluorobenzyl)-1H-pyrazole-4-carbonyl)-2-(3,3,3-trifluoro-2,2-dimethylpropanoyl)-2,6-diazaspiro[3.4]octan-8-yl)methoxy)methyl)-6-(4-(trifluoromethyl)cyclohexyl)benzoic acid], the IC50 in test [1] is 0.5 to 5 µM; in test [2], at most 0.5 µM; in test [3], above 10 µM.
In the same order, the values of `O=C(O)c1c(COC[C@@H]2CN(C(=O)c3cnn(Cc4ccc(F)cc4)c3)CC23CN(C(=O)C2(C(F)(F)F)CCC2)C3)cccc1C1CCC(C(F)(F)F)CC1` (stereo partly drawn) [Compound I-95, (S)-2-(((6-(1-(4-fluorobenzyl)-1H-pyrazole-4-carbonyl)-2-(1-(trifluoromethyl)cyclobutanecarbonyl)-2,6-diazaspiro[3.4]octan-8-yl)methoxy)methyl)-6-(4-(trifluoromethyl)cyclohexyl)benzoic acid] are 0.5 to 5 µM, at most 0.5 µM and above 10 µM.
On the same counts, the results for `O=C(O)c1c(COC[C@@H]2CN(C(=O)c3cnn(Cc4ccc(F)cc4)c3)CC23CN(C(=O)C2CCO2)C3)cccc1C1CCC(C(F)(F)F)CC1` (stereo partly drawn) [Compound I-96] are above 10 µM, 0.5 to 5 µM and above 10 µM.
In the same order, the values of `CC(C(=O)N1CC2(CN(C(=O)c3cnn(Cc4ccc(F)cc4)c3)C[C@H]2COCc2cccc(C3CCC(C(F)(F)F)CC3)c2C(=O)O)C1)C(F)(F)F` (stereo partly drawn) [Compound I-97, 2-((((8S)-6-(1-(4-fluorobenzyl)-1H-pyrazole-4-carbonyl)-2-(3,3,3-trifluoro-2-methylpropanoyl)-2,6-diazaspiro[3.4]octan-8-yl)methoxy)methyl)-6-(4-(trifluoromethyl)cyclohexyl)benzoic acid] are 5 to 10 µM, at most 0.5 µM and above 10 µM.
Turning to `O=C(O)c1c(COC[C@@H]2CN(C(=O)c3cnn(Cc4ccc(F)cc4)c3)CC23CN(C(=O)CC2(C(F)(F)F)CC2)C3)cccc1C1CCC(C(F)(F)F)CC1` (stereo partly drawn) [Compound I-98], the IC50 in test [1] is above 10 µM; in test [2], 0.5 to 5 µM; in test [3], above 10 µM.
Turning to `O=C(O)c1c(COC[C@@H]2CN(C(=O)c3cnn(Cc4ccc(F)cc4)c3)CC23CN(C(=O)C2COC2)C3)cccc1C1CCC(C(F)(F)F)CC1` (stereo partly drawn) [Compound I-99], the IC50 in test [1], in test [2] and in test [3] was above 10 µM each time.
For the molecule `CC(C(=O)N1CC2(CN(C(=O)c3cnn(Cc4ccc(F)cc4)c3)C[C@H]2COCc2cccc(C3CCC(C(F)(F)F)CC3)c2C(=O)O)C1)(C(F)(F)F)C(F)(F)F` (stereo partly drawn) [Compound I-100, (S)-2-(((6-(1-(4-fluorobenzyl)-1H-pyrazole-4-carbonyl)-2-(3,3,3-trifluoro-2-methyl-2-(trifluoromethyl)propanoyl)-2,6-diazaspiro[3.4]octan-8-yl)methoxy)methyl)-6-(4-(trifluoromethyl)cyclohexyl)benzoic acid], the IC50 in test [1] was above 10 µM; in test [2], at most 0.5 µM; in test [3] it was above 10 µM.
With `CC(C)(C(=O)N1CC2(CN(C(=O)c3cnn(Cc4ccc(F)cc4)c3)C[C@H]2COCc2cccc(C3CCC(F)(F)CC3)c2C(=O)O)C1)C(F)(F)F` [Compound I-101, (S)-2-(4,4-difluorocyclohexyl)-6-(((6-(1-(4-fluorobenzyl)-1H-pyrazole-4-carbonyl)-2-(3,3,3-trifluoro-2,2-dimethylpropanoyl)-2,6-diazaspiro[3.4]octan-8-yl)methoxy)methyl)benzoic acid], the IC50 was 0.5 to 5 µM in test [1], at most 0.5 µM in test [2] and above 10 µM in test [3].
For the molecule `O=C(O)Cc1c(COC[C@@H]2CN(C(=O)c3cnn(Cc4ccc(F)cc4)c3)CC23CN(C(=O)C2(C(F)(F)F)CC2)C3)cccc1C1CCC(C(F)(F)F)CC1` (stereo partly drawn) [Compound I-102, (S)-2-(2-(((6-(1-(4-fluorobenzyl)-1H-pyrazole-4-carbonyl)-2-(1-(trifluoromethyl)cyclopropane-1-carbonyl)-2,6-diazaspiro[3.4]octan-8-yl)methoxy)methyl)-6-(4-(trifluoromethyl)cyclohexyl)phenyl)acetic acid], the IC50 was 0.5 to 5 µM in test [1], at most 0.5 µM in test [2] and above 10 µM in test [3].
Regarding `CC(C)(Oc1c(COC[C@@H]2CN(C(=O)c3cnn(Cc4ccc(F)cc4)c3)CC23CN(C(=O)C2(C(F)(F)F)CC2)C3)cccc1C1CCC(C(F)(F)F)CC1)C(=O)O` (stereo partly drawn) [Compound I-108], the values for the IC50 in test [1], in test [2] and in test [3] were above 10 µM, 0.5 to 5 µM and above 10 µM, respectively.
As for `O=C(O)COc1c(COC[C@@H]2CN(C(=O)c3cnn(Cc4ccc(F)cc4)c3)CC23CN(C(=O)C2(C(F)(F)F)CC2)C3)cccc1C1CCC(C(F)(F)F)CC1` (stereo partly drawn) [Compound I-109, (S)-2-(2-(((6-(1-(4-fluorobenzyl)-1H-pyrazole-4-carbonyl)-2-(1-(trifluoromethyl)cyclopropane-1-carbonyl)-2,6-diazaspiro[3.4]octan-8-yl)methoxy)methyl)-6-(4-(trifluoromethyl)cyclohexyl)phenoxy)acetic acid], the IC50 in test [1] was above 10 µM; in test [2], at most 0.5 µM; in test [3], above 10 µM.
As to `O=C(O)c1ccc(C2CCC(C(F)(F)F)CC2)cc1COC[C@@H]1CN(C(=O)c2cnn(Cc3ccc(F)cc3)c2)CC12CN(C(=O)C1(C(F)(F)F)CC1)C2` (stereo partly drawn) [Compound I-111], the IC50 is above 10 µM in test [1], 0.5 to 5 µM in test [2] and above 10 µM in test [3].
`O=C(O)c1ccccc1Cn1cc(C(=O)N2CC(COCc3cccc(C4CCC(C(F)(F)F)CC4)c3C(F)(F)F)C3(C2)CN(C(=O)C2(C(F)(F)F)CC2)C3)cn1` (stereo not drawn) [Compound I-114]: the IC50 in test [1] was above 10 µM; in test [2], at most 0.5 µM; in test [3], above 10 µM.
In the case of `CC1(C)C[C@@H]1C(=O)N1CC2(CN(C(=O)c3cnn(Cc4ccc(F)cc4C(F)(F)F)c3)C[C@H]2COCc2cccc(C3CCC(F)(F)CC3)c2C(=O)O)C1` [Compound I-118, 2-(4,4-difluorocyclohexyl)-6-(((2-((S)-2,2-dimethylcyclopropane-1-carbonyl)-6-(1-(4-fluoro-2-(trifluoromethyl)benzyl)-1H-pyrazole-4-carbonyl)-2,6-diazaspiro[3.4]octan-8-yl)methoxy)methyl)benzoic acid], the results for the IC50 in test [1], in test [2] and in test [3] were 5 to 10 µM, at most 0.5 µM and above 10 µM, respectively.
In the same order, the values of `CC1(C)C[C@@H]1C(=O)N1CC2(CN(C(=O)c3cnn(Cc4ccc(F)cc4)c3)C[C@H]2COCc2c(F)ccc(C3CCC(F)(F)CC3)c2C(=O)O)C1` [Compound I-119, 6-(4,4-difluorocyclohexyl)-2-(((2-((S)-2,2-dimethylcyclopropane-1-carbonyl)-6-(1-(4-fluorobenzyl)-1H-pyrazole-4-carbonyl)-2,6-diazaspiro[3.4]octan-8-yl)methoxy)methyl)-3-fluorobenzoic acid] are 0.5 to 5 µM, at most 0.5 µM and above 10 µM.
Turning to `CC(C)(C(=O)N1CC2(CN(C(=O)c3cnn(Cc4ccc(F)cc4C(F)(F)F)c3)C[C@H]2COCc2cccc(C3CCC(F)(F)CC3)c2C(=O)O)C1)C(F)(F)F` [Compound I-127, (S)-2-(4,4-difluorocyclohexyl)-6-(((6-(1-(4-fluoro-2-(trifluoromethyl)benzyl)-1H-pyrazole-4-carbonyl)-2-(3,3,3-trifluoro-2,2-dimethylpropanoyl)-2,6-diazaspiro[3.4]octan-8-yl)methoxy)methyl)benzoic acid], the IC50 in test [1] is 0.5 to 5 µM; in test [2], at most 0.5 µM; in test [3], above 10 µM.
Take `CC1(C)C[C@@H]1C(=O)N1CC2(CN(C(=O)c3cnn(Cc4ccc(F)cc4)c3)CC2COc2cccc(C3CCC(F)(F)CC3)c2C(=O)O)C1` (stereo partly drawn) [Compound I-128, 2-(4,4-difluorocyclohexyl)-6-((2-((S)-2,2-dimethylcyclopropane-1-carbonyl)-6-(1-(4-fluorobenzyl)-1H-pyrazole-4-carbonyl)-2,6-diazaspiro[3.4]octan-8-yl)methoxy)benzoic acid]: the IC50 was above 10 µM in test [1], at most 0.5 µM in test [2] and above 10 µM in test [3].
With `CC1(C)C[C@@H]1C(=O)N1CC2(CN(C(=O)c3cnn(Cc4ccc(F)cc4)c3)CC2COc2cccc(CC3CCC(F)(F)CC3)c2C(=O)O)C1` (stereo partly drawn) [Compound I-129], the IC50 in test [1] was above 10 µM; in test [2] it was at most 0.5 µM; in test [3] it was above 10 µM.

The values are drawn from US20260034123A1 (Cedilla Therapeutics, Inc., priority 2022, published 2026).
